Experimental findings from EP4790048A1, “S1PR4 REGULATOR COMPOUND FOR AUTOIMMUNE DISEASE TREATMENT AND APPLICATION THEREOF” (Shengyuan Zetong (Shanghai) Pharmaceutical Co., Ltd, priority 2023, dated 2025) are described below.

Residue numbers refer to the chain shown, from its start.

The test system of data set [1] is BALB/c mice. In words: DSS-induced chronic ulcerative colitis in mice (Example 6). It counts as in vivo. From the text: BALB/c mice were acclimatized for 7 days before the experiment. From Day 7 to Day 50 of the experiment, the mice were weighed daily and their blood and stool conditions were observed, scored and recorded according to the following table (Table 1). After random grouping, all groups except the Control group were given free access to 2-3% DSS solution for modeling from Day 7 to Day 14, while the Control group received normal drinking water during the same period. One cycle lasted 14 days and was repeated 3 times. Re-grouping was performed at the start of the final cycle to initiate drug administration. The Control group and Model group received no drug but the same solvent. The other groups were intragastrically administered 1 mg/kg, 3 mg/kg, 9 mg/kg, and SASP 500 mg/kg respectively. On Day 45, blood and colon samples were collected, colon length was measured, and a 1-2 cm colon segment was fixed with formaldehyde.
(§1) • BALB/c mice, male, 20-22 g • Dextran sulfate sodium MW: 36,000-50,000 (DSS) • 30 1 mg/kg, 3 mg/kg, 9 mg/kg, SASP (500 mg/kg) indicators were observed.
(§2) (1) Clinical Symptom Score: The mice were weighed daily and their blood and stool were observed during the experiment for DAI scoring, which was graded and recorded according to the following table (Table 1).
(§3) (2) After the experiment, the colon was removed, its length measured and weight recorded. The colon-to-body weight index (colon weight/body weight × 100%) and colon swelling rate (colon weight/length × 100%) were calculated.
(§4) Colonic tissue approximately 1 cm from the anal margin (0.5 cm) and ileocecal region tissue were collected for histopathological examination. After H&E staining, the tissues were scored under single-blind conditions to evaluate the level of distal colon inflammation and tissue damage; scoring was performed according to the Ameho criteria and calculated as follows: • Score 0: No abnormal findings in the texture. • Score 1: Mild inflammatory infiltration of the mucosa and/or submucosa (mixed with neutrophils), submucosal edema, punctate mucosal erosion, accompanied by capillary proliferation. The muscularis mucosae is intact. • Score 2: Changes of Score 1 account for more than 50%. • Score 3: Obvious inflammatory infiltration and edema (neutrophils are often predominant); ulcers usually penetrate the muscularis mucosae to reach the submucosa. There is little inflammatory cell infiltration in the muscularis propria and no muscle necrosis. • Score 4: Changes of Score 3 account for more than 50%. • Score 5: Large confluent ulcers with coagulative necrosis, massive neutrophil infiltration at the margins and few monocytes. Necrotic tissue penetrates the muscularis propria. • Score 6: Changes of Score 5 account for more than 50% of the specimen.
The fence function of Occludin separates the apical and basolateral sides of the epithelial cell plasma membrane, restricting the free flow of lipids on the cell membrane, facilitating the formation of cell polarity, maintaining the impermeability and rigidity of the intestinal mucosa, and preventing the entry of pathogenic microorganisms. The barrier function of Occludin can regulate the transport of small molecules and maintain tissue homeostasis. The expression and distribution of related proteins are detected by immunohistochemistry.
During modeling, the body weight of mice in the control group increased steadily. In the model group, during the first modeling period, mice were given 3% DSS drinking water ad libitum for 7 days, followed by tap water ad libitum for 7 days. On Day 4 of modeling, the body weight of mice began to decrease generally, reaching the lowest point on Day 8, and then started to rise. During the second modeling period, mice were given 2% DSS drinking water ad libitum for 7 days, followed by tap water ad libitum for 7 days. […]

Data set [2] concerns BALB/c mice. Kind of data set: DSS-induced acute ulcerative colitis in mice (Example 6). Type of data set: in vivo. The protocol: From Day 0 to Day 14 of the experiment, the mice were weighed daily and their blood and stool conditions were observed, scored and recorded according to the following table (Table 1). Random grouping was performed on Day 1, and modeling was conducted from Day 1 to Day 7. All groups except the Control group were given 3.5% DSS water daily. Re-grouping was performed on Day 8. The Control group and Model group received no medication and were given tap water; the other groups were administered intragastrically with 1 mg/kg, 3 mg/kg, 9 mg/kg, and SASP (Sulfasalazine or Salicylazosulfapyridine) 500 mg/kg, respectively. On Day 15, blood and colon samples were collected, colon length was measured, and a 1-2 cm segment of the colon was fixed with formaldehyde.
as §1, §2, §3, §4
The fence function of Occludin separates the apical and basolateral sides of the epithelial cell plasma membrane, restricting the free flow of lipids on the cell membrane, facilitating the formation of cell polarity, maintaining the impermeability and rigidity of the intestinal mucosa, and preventing the entry of pathogenic microorganisms. The barrier function of Occludin can regulate the transport of small molecules and maintain tissue homeostasis. […]

The next data set deals with T1, S1PR4 (Homo sapiens, UniProt O95977).
T1 construct: expressed in transfected cells; host or cells: 293T
T1 sequence (O95977 1-384): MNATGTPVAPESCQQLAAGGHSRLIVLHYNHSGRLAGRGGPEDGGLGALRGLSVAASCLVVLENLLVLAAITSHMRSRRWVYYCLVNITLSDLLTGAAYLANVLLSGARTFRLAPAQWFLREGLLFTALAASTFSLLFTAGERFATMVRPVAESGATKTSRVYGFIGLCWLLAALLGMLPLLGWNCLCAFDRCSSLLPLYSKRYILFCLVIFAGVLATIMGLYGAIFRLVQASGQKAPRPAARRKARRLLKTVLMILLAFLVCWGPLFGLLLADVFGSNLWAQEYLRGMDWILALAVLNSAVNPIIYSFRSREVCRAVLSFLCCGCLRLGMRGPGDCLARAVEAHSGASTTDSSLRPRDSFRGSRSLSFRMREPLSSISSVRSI
Kind of data set: S1PR4 internalization and recovery test in S1PR4-293T cells. Type of data set: cell-based. The settings on record: 1 µM, 37 °C, 1.5 hours; detected immediately, 5 hours or 20 hours after treatment. The protocol: Therefore, the recovery degree of S1PR4 after internalization caused by Compound 30 was evaluated, and the recovery effect following receptor internalization caused by Compound 30 was assessed in cells with high S1PR4 expression.

The next data set deals with T2, hS1P1 (Homo sapiens, UniProt P21453).
T2 construct: expressed in transfected cells; host or cells: CHO
T2 sequence (P21453 whole entry): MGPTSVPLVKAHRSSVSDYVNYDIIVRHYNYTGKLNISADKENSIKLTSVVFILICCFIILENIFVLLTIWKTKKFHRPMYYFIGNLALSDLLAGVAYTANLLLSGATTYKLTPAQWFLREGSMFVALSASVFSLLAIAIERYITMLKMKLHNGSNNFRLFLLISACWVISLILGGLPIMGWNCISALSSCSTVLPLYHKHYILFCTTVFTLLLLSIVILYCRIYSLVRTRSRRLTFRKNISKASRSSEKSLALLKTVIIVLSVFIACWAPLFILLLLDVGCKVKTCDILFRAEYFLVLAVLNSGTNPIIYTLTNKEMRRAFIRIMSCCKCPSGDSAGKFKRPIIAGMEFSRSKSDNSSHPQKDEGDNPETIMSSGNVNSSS
In words: Tango β-arrestin recruitment luciferase assay, Tango-hS1P1-CHO. The settings on record: β-arrestin recruitment; 20 h drug treatment; top 45 µM, 9 serial 5-fold dilutions; positive control 1 µM BAF-312; read-out: Tango-hS1P1-CHO EC50. It counts as cell-based. From the text:
(§5) The Tango assay detects ligand-dependent GPCR activity through the interaction between β-arrestin and GPCRs. […] The NTEV fragment and the tetracycline transactivator (tTA), an artificial transcription factor, are fused at the C-terminus of the GPCR, while the CTEV fragment is fused to human β-arrestin 2. To enhance the stability of the interaction between GPCR and β-arrestin, a short sequence from the C-terminus of the human arginine vasopressin receptor 2 (V2 tail) is inserted between the GPCR and NTEV. The V2 tail contains multiple GRK phosphorylation sites, which strengthen β-arrestin binding upon phosphorylation. The CTEV fragment carries the stabile point mutation S219P and is truncated at residue 221 to remove the autoinhibitory C-terminal tail. Meanwhile, β-arrestin 2 is truncated to lack the entire C-terminal tail (residues 383-410 deleted). This truncation confers robust stimulus-dependent receptor desensitization, thereby improving detection sensitivity compared with wild-type β-arrestin 2. The UAS reporter construct consists of upstream activating sequence (UAS) elements, a minimal CMV promoter, and a tTA-dependent luciferase reporter gene. Therefore, constructing Tango cells requires the co-transfection of the above three plasmids into host cells. Upon GPCR activation and β-arrestin recruitment, the TEV enzyme at the β-arrestin terminus cleaves tTA from the GPCR C-terminus. The released tTA initiates tTA-dependent luciferase transcription, and compound activity is ultimately determined by measuring luminescence intensity.
(§6) • 1) Tango cell line from was digested from the culture dish respectively. After cell counting, the cells were plated at a density of 10,000 cells per well with […] into a white opaque 96-well plate (add 60 µL D'Hanks to the surrounding wells), and incubated overnight (20 h) in a 5% CO2 incubator at 37°C. The cell density will reach approximately 90% the next day. • 2) After 20 h, 30 µL of serially diluted compound solution was added to each well. The control group was supplemented with 30 µL F12K complete medium. Each group had three replicate wells. • 3) Samples were collected after 20 h of drug treatment.
(§7) (All compounds were tested at a final concentration of 45 µM, with 9 serial dilutions at 5-fold intervals. 1 µM BAF-312 was used as the positive control for S1PR1, and 25 µM BAF-312 was used as the positive control for S1PR4.
(Recruitment of arrestin is a read-out of receptor activation apart from second messengers.)

The target in the next data set is T3, hS1P4-R-79C (Homo sapiens, UniProt O95977, R79C).
T3 construct: expressed in transfected cells; host or cells: CHO
T3 sequence (O95977 1-384 R79C): T1 sequence (O95977 1-384) with R79C
Kind of data set: Tango β-arrestin recruitment luciferase assay, Tango-hS1P4-R-79C-CHO (S1PR4 mutant). It counts as cell-based. The settings on record: 20 h drug treatment.
From the text: as §5, §6, §7

Data set [3] is described as follows: Pharmacokinetic property testing in rats. The conditions noted are these: for Tmax: 3 per group. It counts as in vivo, SD rats. The text has this:
In the structure-activity relationship discussion, the inventors obtained key compound 22. Based on compound 22, the polar head of the compound was modified as chiral pyrrolidine carboxylic acid, yielding selective S1PR4 agonists 30 and 67. We conducted pharmacokinetic property analyses on compounds 22, 30, and 67, respectively.

The mark [4] stands for this setting: Sprague-Dawley, rat, in vivo, IV (1 mg/kg), male SD rats.
The mark [5] stands for this setting: Sprague-Dawley, rat, in vivo, PO (10 mg/kg), male SD rats.

As for `O=C(O)c1cc(/N=N/c2ccc(S(=O)(=O)Nc3ccccn3)cc2)ccc1O` [SASP, Sulfasalazine, reference compound], the “daily DAI score” value in the data set on BALB/c mice [1] (30 treatment group, SASP 500 mg/kg, vs model group) is “decreased more rapidly”; in the data set on BALB/c mice [2] (30 treatment groups, SASP 500 mg/kg, vs model group), “decreased more rapidly”. Besides, the body weight recovery result is “recovered rapidly and increased substantially” in the data set with BALB/c mice [1] (30 treatment groups (1, 3, 9 mg/kg), SASP 500 mg/kg, vs model group); “faster body weight recovery with a greater rebound amplitude” in the data set with BALB/c mice [2] (30 at 3 mg/kg, SASP at 500 mg/kg, vs model group). The “colon pathological changes (H&E staining)” value in the data set on BALB/c mice [1] (SASP 500 mg/kg) was “inflammatory cell infiltration, but to a lesser extent than the Model group”; with BALB/c mice [2] (SASP 500 mg/kg), “still had inflammatory cell infiltration, but to a lesser extent than the Model group”. For the same compound, the “Occludin expression in colonic mucosa (immunohistochemistry)” value in the data set with BALB/c mice [1] (vs Model group) and in the data set with BALB/c mice [2] (vs Model group) was “the expression of Occludin was increased” in each case. This compound also gave a survival rate with BALB/c mice [2] (SASP 500 mg/kg intragastric from Day 8, 8 mice, model group 75%) of 87.5%.

As to `CCc1cc(/C(C)=N/OCc2ccc(C3CCCCC3)c(C(F)(F)F)c2)ccc1CN1CC(C(=O)O)C1` [BAF312], the “S1PR4 internalization (expression of S1PR4 receptor on the cell surface)” value on S1PR4 is reported as “cannot induce S1PR4 internalization”.

In the case of `CCc1cc(/C(C)=N/OCc2ccc(-c3ccccc3)c(C)c2)ccc1CN1CC[C@@H](C(=O)O)C1` [Compound 29], the EC50 on hS1P1 is 169 nM; at hS1P4-R-79C, 87.2 nM.

For the compound `CCc1cc(/C(C)=N/OCc2ccc(-c3ccccc3)c(C)c2)ccc1CN1CC(C(=O)O)C1` [Compound 22, (E)-1-(2-ethyl-4-(1-((2-methyl-[1,1'-biphenyl]-4-yl)methoxy)imino)ethyl)azetidine-3-carboxylic acid], on hS1P4-R-79C, the EC50 turned out to be 27 nM. Also, in data set [3] (IV (1 mg/kg), male SD rats), the “CL_obs” value is 34.7 ± 3.17 mL/min/kg and the “Vss_obs” value was found to be 0.88 ± 0.07 L/kg. Besides, in data set [3] (PO (10 mg/kg), male SD rats), the “CL_obs” value is 148 ± 64.3 mL/min/kg and the “Vss_obs” value is 27.73 ± 16.85 L/kg. For the same compound, in data set [3] (setting [4]), the AUC(0-t) was 476 ± 43.6 ng·h/mL, the Cmax worked out at 995 ± 53.2 ng/mL, the half-life is 25.2 ± 1.8 min and the Tmax came to 4.8 min. Moreover, in data set [3] (setting [5]), the AUC(0-t) was 1120 ± 400 ng·h/mL, the Cmax came out at 544 ± 221 ng/mL, the half-life was 130 ± 57.6 min and the Tmax came to 49.8 ± 17.4 min. In data set [3] (male, Sprague-Dawley, rat, in vivo, oral, 10 mg/kg), the bioavailability stood at 23.5%. For the same compound, the “F (%)” value in data set [3] (oral bioavailability, PO 10 mg/kg vs IV 1 mg/kg, male SD rats) stood at 23.5%.

Take `CCc1cc(/C(C)=N/OCc2ccc(-c3ccccc3)c(C)c2)ccc1CNCCC(=O)O` [Compound 31]: the EC50 on hS1P1 was found to be 128 nM; on hS1P4-R-79C, 73.1 nM.

One may read the EC50 as the concentration giving half of the maximal effect. Broadly, the AUC(0-t) is the area under the concentration-time curve up to a stated or last time point. A low value points to low exposure. In general, Cmax refers to the maximum level reached in the sampled fluid or tissue. As a reminder, the half-life is how long it takes for the measured level to halve. What is called Tmax is the time from dosing to the highest level. What is called bioavailability is the share of a dose that reaches the circulation, judged against a reference dose that is usually intravenous. Read a low bioavailability as poor availability.
